Experiments:
Type in all cases: in vivo
[1] = test system: galium (catchweed bedstraw, Galium aparine); assay: Test A postemergence; conditions: 0 to 100 scale
Excerpt: (§1) Seeds of plant species selected from barnyardgrass (Echinochloa crus-galli), kochia (Kochia scoparia), ragweed (common ragweed, Ambrosia elatior), Italian ryegrass (Lolium multiflorum), large (Lg) crabgrass (Digitaria sanguinalis), giant foxtail (Setaria faberii), morningglory (Ipomoea spp.), pigweed (Amaranthus retroflexus), velvetleaf (Abutilon theophrasti), wheat (Triticum aestivum), and corn (Zea mays) were planted into a blend of loam soil and sand and treated preemergence with a directed soil spray using test chemicals formulated in a non-phytotoxic solvent mixture which included a surfactant.
(§2) At the same time, plants selected from these crop and weed species and also blackgrass (Alopecurus myosuroides), and galium (catchweed bedstraw, Galium aparine) were planted in pots containing the same blend of loam soil and sand and treated with postemergence applications of test chemicals formulated in the same manner. Plants ranged in height from 2 to 10 cm and were in the one- to two-leaf stage for the postemergence treatment. Treated plants and untreated controls were maintained in a greenhouse for approximately 10 days, after which time all treated plants were compared to untreated controls and visually evaluated for injury. Plant response ratings, summarized in Table A, are based on a 0 to 100 scale where 0 is no effect and 100 is complete control. A dash (-) response means no test result.

[2] = test system: giant foxtail (Setaria faberii); assay: Test A postemergence; conditions: 0 to 100 scale
Excerpt: as §1, §2

[3] = test system: pigweed (Amaranthus retroflexus); assay: Test A postemergence; conditions: 0 to 100 scale
Excerpt: as §1, §2

[4] = test system: Italian ryegrass (Lolium multiflorum); assay: Test A postemergence; conditions: 0 to 100 scale
Excerpt: as §1, §2

kochia (Kochia scoparia) [5] = assay: Test A postemergence; conditions: 0 to 100 scale
Excerpt: as §1, §2

[6] = test system: blackgrass (Alopecurus myosuroides); assay: Test A postemergence; conditions: 0 to 100 scale
Excerpt: as §1, §2

corn (Zea mays) = assay: Test A postemergence; conditions: 0 to 100 scale
Excerpt: as §1, §2

[7] = test system: barnyardgrass (Echinochloa crus-galli); assay: Test A postemergence; conditions: 0 to 100 scale
Excerpt: as §1, §2

[8] = test system: ragweed (common ragweed, Ambrosia elatior); assay: Test A postemergence; conditions: 0 to 100 scale
Excerpt: as §1, §2

[9] = test system: wheat (Triticum aestivum); assay: Test A postemergence; conditions: 0 to 100 scale
Excerpt: as §1, §2

[10] = test system: ducksalad (Heteranthera limosa); assay: Test B flooded paddy; conditions: 250 g ai/ha, Flood, 13 to 15 days, scale 0 (no effect) to 100 (complete control)
Excerpt: (§3) At time of treatment, test pots were flooded to 3 cm above the soil surface, treated by application of test compounds directly to the paddy water, and then maintained at that water depth for the duration of the test. Treated plants and controls were maintained in a greenhouse for 13 to 15 days, after which time all species were compared to controls and visually evaluated. […] A dash (-) response means no test result.

rice (Oryza sativa) = assay: Test B flooded paddy; conditions: 250 g ai/ha, Flood, 13 to 15 days, scale 0 (no effect) to 100 (complete control)
Excerpt: as §3

[11] = test system: sedge, umbrella (small-flower umbrella sedge, Cyperus difformis); assay: Test B flooded paddy; conditions: 250 g ai/ha, Flood, 13 to 15 days, scale 0 (no effect) to 100 (complete control)
Excerpt: as §3

[12] = test system: barnyardgrass (Echinochloa crus-galli); assay: Test B flooded paddy; conditions: 250 g ai/ha, Flood, 13 to 15 days, scale 0 (no effect) to 100 (complete control)
Excerpt: as §3

[13] = test system: giant foxtail (Setaria faberii); assay: Test A preemergence
Excerpt: as §1, §2

[14] = test system: pigweed (Amaranthus retroflexus); assay: Test A preemergence
Excerpt: as §1, §2

[15] = test system: Italian ryegrass (Lolium multiflorum); assay: Test A preemergence
Excerpt: as §1, §2

kochia (Kochia scoparia) [16] = assay: Test A preemergence
Excerpt: as §1, §2

[17] = test system: barnyardgrass (Echinochloa crus-galli); assay: Test A preemergence
Excerpt: as §1, §2

[18] = test system: ragweed (common ragweed, Ambrosia elatior); assay: Test A preemergence
Excerpt: as §1, §2

[19] = 31 g ai/ha, 0 to 100 scale (0 no effect, 100 complete control)
[20] = 125 g ai/ha, 0 to 100 scale (0 no effect, 100 complete control)

N#Cc1cccc(Oc2ncc(Cl)cn2)c1Oc1ccc(C(F)(F)F)nn1 [Compound 26]
20: Plant response rating, Corn (corn (Zea mays); 125 g ai/ha) | Plant response rating, Barnyardgrass ([7]; 125 g ai/ha) | Foxtail, Giant plant response rating [13, 19] | Kochia plant response rating (kochia (Kochia scoparia) [16]; [19]) | Plant response rating, Barnyardgrass ([17]; 125 g ai/ha, 0 to 100 scale) | Ragweed plant response rating [18, 20]
60: Plant response rating, Kochia (kochia (Kochia scoparia) [5]; 125 g ai/ha) | Plant response rating, Sedge, Umbrella [11] | Foxtail, Giant plant response rating [13, 20]
50: Plant response rating, Galium ([1]; 125 g ai/ha) | Plant response rating, Pigweed ([3]; 31 g ai/ha)
30: Plant response rating, Galium ([1]; 31 g ai/ha) | Plant response rating, Foxtail, Giant ([2]; 125 g ai/ha) | Plant response rating, Blackgrass ([6]; 125 g ai/ha) | Plant response rating, Ragweed ([8]; 31 g ai/ha) | Plant response rating, Ragweed ([8]; 125 g ai/ha) | Kochia plant response rating (kochia (Kochia scoparia) [16]; [20])
10: Plant response rating, Foxtail, Giant ([2]; 31 g ai/ha) | Plant response rating, Wheat ([9]; 125 g ai/ha)
100: Pigweed plant response rating [14, 20]
0: Plant response rating, Ryegrass, Italian ([4]; 31 g ai/ha) | Plant response rating, Ryegrass, Italian ([4]; 125 g ai/ha) | Plant response rating, Blackgrass ([6]; 31 g ai/ha) | Plant response rating, Corn (corn (Zea mays); 31 g ai/ha) | Plant response rating, Barnyardgrass ([7]; 31 g ai/ha) | Plant response rating, Wheat ([9]; 31 g ai/ha) | Plant response rating, Rice (rice (Oryza sativa)) | Plant response rating, Barnyardgrass [12] | Ryegrass, Italian plant response rating [15, 19] | Ryegrass, Italian plant response rating [15, 20] | Barnyardgrass plant response rating [17, 19] | Ragweed plant response rating [18, 19]
70: Plant response rating, Ducksalad [10]
90: Pigweed plant response rating [14, 19]
80: Plant response rating, Pigweed ([3]; 125 g ai/ha)
40: Plant response rating, Kochia (kochia (Kochia scoparia) [5]; 31 g ai/ha)

N#Cc1cccc(Oc2ncc(Cl)cn2)c1Oc1ccc(C(F)(F)F)cn1 [Compound 14]
80: Plant response rating, Pigweed ([14]; 125 g ai/ha, 0 to 100 scale)
50: Plant response rating, Galium ([1]; 125 g ai/ha) | Plant response rating, Pigweed ([3]; 125 g ai/ha)
30: Plant response rating, Blackgrass ([6]; 125 g ai/ha) | Plant response rating, Ducksalad [10]
40: Plant response rating, Galium ([1]; 31 g ai/ha) | Pigweed plant response rating [14, 19]
0: Plant response rating, Foxtail, Giant ([2]; 31 g ai/ha) | Plant response rating, Pigweed ([3]; 31 g ai/ha) | Plant response rating, Ryegrass, Italian ([4]; 31 g ai/ha) | Plant response rating, Ryegrass, Italian ([4]; 125 g ai/ha) | Plant response rating, Kochia (kochia (Kochia scoparia) [5]; 31 g ai/ha) | Plant response rating, Kochia (kochia (Kochia scoparia) [5]; 125 g ai/ha) | Plant response rating, Blackgrass ([6]; 31 g ai/ha) | Plant response rating, Corn (corn (Zea mays); 31 g ai/ha) | Plant response rating, Corn (corn (Zea mays); 125 g ai/ha) | Plant response rating, Barnyardgrass ([7]; 31 g ai/ha) | Plant response rating, Barnyardgrass ([7]; 125 g ai/ha) | Plant response rating, Ragweed ([8]; 31 g ai/ha) | Plant response rating, Ragweed ([8]; 125 g ai/ha) | Plant response rating, Wheat ([9]; 31 g ai/ha) | Plant response rating, Wheat ([9]; 125 g ai/ha) | Plant response rating, Sedge, Umbrella [11] | Plant response rating, Barnyardgrass [12] | Foxtail, Giant plant response rating [13, 19] | Plant response rating, Foxtail, Giant ([13]; 125 g ai/ha, 0 to 100 scale) | Ryegrass, Italian plant response rating [15, 19] | Plant response rating, Ryegrass, Italian ([15]; 125 g ai/ha, 0 to 100 scale) | Kochia plant response rating (kochia (Kochia scoparia) [16]; [19]) | Plant response rating, Kochia (kochia (Kochia scoparia) [16]; 125 g ai/ha, 0 to 100 scale) | Barnyardgrass plant response rating [17, 19] | Plant response rating, Barnyardgrass ([17]; 125 g ai/ha, 0 to 100 scale) | Ragweed plant response rating [18, 19] | Plant response rating, Ragweed ([18]; 125 g ai/ha, 0 to 100 scale)
20: Plant response rating, Foxtail, Giant ([2]; 125 g ai/ha)
15: Plant response rating, Rice (rice (Oryza sativa))

N#Cc1cccc(Oc2ncc(Cl)cn2)c1Oc1cccnc1 [Compound 8]
0%: pest or weed control at 31 g/ha ([2]; Setaria faberi, post-emergence, 240 h, 31 g ai/ha, read-out: Plant response rating, Foxtail, Giant) | pest or weed control at 125 g/ha ([2]; Setaria faberi, post-emergence, 240 h, 125 g ai/ha, read-out: Plant response rating, Foxtail, Giant) | pest or weed control at 31 g/ha ([4]; Lolium multiflorum, post-emergence, 240 h, 31 g ai/ha, read-out: Plant response rating, Ryegrass, Italian) | pest or weed control at 125 g/ha ([4]; Lolium multiflorum, post-emergence, 240 h, 125 g ai/ha, read-out: Plant response rating, Ryegrass, Italian) | pest or weed control at 31 g/ha ([6]; Alopecurus myosuroides, post-emergence, 240 h, 31 g ai/ha, read-out: Plant response rating, Blackgrass) | pest or weed control at 125 g/ha ([6]; Alopecurus myosuroides, post-emergence, 240 h, 125 g ai/ha, read-out: Plant response rating, Blackgrass) | Corn plant response rating (crop injury, 0 = no effect, 100 = complete kill) at 31 g/ha (corn (Zea mays); Zea mays, post-emergence, 240 h, 31 g ai/ha) | pest or weed control at 31 g/ha ([7]; Echinochloa crus-galli, post-emergence, 240 h, 31 g ai/ha, read-out: Plant response rating, Barnyardgrass) | pest or weed control at 31 g/ha ([8]; Ambrosia artemisiifolia, post-emergence, 240 h, 31 g ai/ha, read-out: Plant response rating, Ragweed) | pest or weed control at 125 g/ha ([8]; Ambrosia artemisiifolia, post-emergence, 240 h, 125 g ai/ha, read-out: Plant response rating, Ragweed) | plant injury at 31 g/ha ([9]; Triticum aestivum, post-emergence, 240 h, 31 g ai/ha, read-out: Plant response rating, Wheat) | plant injury at 125 g/ha ([9]; Triticum aestivum, post-emergence, 240 h, 125 g ai/ha, read-out: Plant response rating, Wheat) | pest or weed control at 31 g/ha ([13]; Setaria faberi, pre-emergence, 240 h, 31 g ai/ha, 0 to 100 scale (0 no effect, 100 complete control), read-out: Foxtail, Giant plant response rating) | pest or weed control at 125 g/ha ([13]; Setaria faberi, pre-emergence, 240 h, 125 g ai/ha, 0 to 100 scale, read-out: Plant response rating, Foxtail, Giant) | pest or weed control at 31 g/ha ([14]; Amaranthus retroflexus, pre-emergence, 240 h, 31 g ai/ha, 0 to 100 scale (0 no effect, 100 complete control), read-out: Pigweed plant response rating) | pest or weed control at 31 g/ha ([15]; Lolium multiflorum, pre-emergence, 240 h, 31 g ai/ha, 0 to 100 scale (0 no effect, 100 complete control), read-out: Ryegrass, Italian plant response rating) | pest or weed control at 125 g/ha ([15]; Lolium multiflorum, pre-emergence, 240 h, 125 g ai/ha, 0 to 100 scale, read-out: Plant response rating, Ryegrass, Italian) | pest or weed control at 31 g/ha (kochia (Kochia scoparia) [16]; Bassia scoparia, pre-emergence, 240 h, 31 g ai/ha, 0 to 100 scale (0 no effect, 100 complete control), read-out: Kochia plant response rating) | pest or weed control at 125 g/ha (kochia (Kochia scoparia) [16]; Bassia scoparia, pre-emergence, 240 h, 125 g ai/ha, 0 to 100 scale, read-out: Plant response rating, Kochia) | pest or weed control at 31 g/ha ([17]; Echinochloa crus-galli, pre-emergence, 240 h, 31 g ai/ha, 0 to 100 scale (0 no effect, 100 complete control), read-out: Barnyardgrass plant response rating) | pest or weed control at 125 g/ha ([17]; Echinochloa crus-galli, pre-emergence, 240 h, 125 g ai/ha, 0 to 100 scale, read-out: Plant response rating, Barnyardgrass) | pest or weed control at 31 g/ha ([18]; Ambrosia artemisiifolia, pre-emergence, 240 h, 31 g ai/ha, 0 to 100 scale (0 no effect, 100 complete control), read-out: Ragweed plant response rating) | pest or weed control at 125 g/ha ([18]; Ambrosia artemisiifolia, pre-emergence, 240 h, 125 g ai/ha, 0 to 100 scale, read-out: Plant response rating, Ragweed)
20%: pest or weed control at 125 g/ha ([1]; Galium, post-emergence, 240 h, 125 g ai/ha, read-out: Plant response rating, Galium) | pest or weed control at 125 g/ha ([3]; Amaranthus retroflexus, post-emergence, 240 h, 125 g ai/ha, read-out: Plant response rating, Pigweed)
30%: pest or weed control at 125 g/ha (kochia (Kochia scoparia) [5]; Bassia scoparia, post-emergence, 240 h, 125 g ai/ha, read-out: Plant response rating, Kochia)
10%: pest or weed control at 31 g/ha ([1]; Galium, post-emergence, 240 h, 31 g ai/ha, read-out: Plant response rating, Galium) | pest or weed control at 31 g/ha ([3]; Amaranthus retroflexus, post-emergence, 240 h, 31 g ai/ha, read-out: Plant response rating, Pigweed) | pest or weed control at 31 g/ha (kochia (Kochia scoparia) [5]; Bassia scoparia, post-emergence, 240 h, 31 g ai/ha, read-out: Plant response rating, Kochia) | Corn plant response rating (crop injury, 0 = no effect, 100 = complete kill) at 125 g/ha (corn (Zea mays); Zea mays, post-emergence, 240 h, 125 g ai/ha) | pest or weed control at 125 g/ha ([7]; Echinochloa crus-galli, post-emergence, 240 h, 125 g ai/ha, read-out: Plant response rating, Barnyardgrass) | pest or weed control at 125 g/ha ([14]; Amaranthus retroflexus, pre-emergence, 240 h, 125 g ai/ha, 0 to 100 scale, read-out: Plant response rating, Pigweed)
